# Assay results from US12492185B2, “Benzimidazole derivatives and their uses” (Teijin Pharma Limited, priority 2019, dated 2025).
# Molecular target: T1, human TRPC6 (Homo sapiens, UniProt Q9Y210)
# T1 construct: expressed in transfected cells
# T1 sequence (Q9Y210 1-931): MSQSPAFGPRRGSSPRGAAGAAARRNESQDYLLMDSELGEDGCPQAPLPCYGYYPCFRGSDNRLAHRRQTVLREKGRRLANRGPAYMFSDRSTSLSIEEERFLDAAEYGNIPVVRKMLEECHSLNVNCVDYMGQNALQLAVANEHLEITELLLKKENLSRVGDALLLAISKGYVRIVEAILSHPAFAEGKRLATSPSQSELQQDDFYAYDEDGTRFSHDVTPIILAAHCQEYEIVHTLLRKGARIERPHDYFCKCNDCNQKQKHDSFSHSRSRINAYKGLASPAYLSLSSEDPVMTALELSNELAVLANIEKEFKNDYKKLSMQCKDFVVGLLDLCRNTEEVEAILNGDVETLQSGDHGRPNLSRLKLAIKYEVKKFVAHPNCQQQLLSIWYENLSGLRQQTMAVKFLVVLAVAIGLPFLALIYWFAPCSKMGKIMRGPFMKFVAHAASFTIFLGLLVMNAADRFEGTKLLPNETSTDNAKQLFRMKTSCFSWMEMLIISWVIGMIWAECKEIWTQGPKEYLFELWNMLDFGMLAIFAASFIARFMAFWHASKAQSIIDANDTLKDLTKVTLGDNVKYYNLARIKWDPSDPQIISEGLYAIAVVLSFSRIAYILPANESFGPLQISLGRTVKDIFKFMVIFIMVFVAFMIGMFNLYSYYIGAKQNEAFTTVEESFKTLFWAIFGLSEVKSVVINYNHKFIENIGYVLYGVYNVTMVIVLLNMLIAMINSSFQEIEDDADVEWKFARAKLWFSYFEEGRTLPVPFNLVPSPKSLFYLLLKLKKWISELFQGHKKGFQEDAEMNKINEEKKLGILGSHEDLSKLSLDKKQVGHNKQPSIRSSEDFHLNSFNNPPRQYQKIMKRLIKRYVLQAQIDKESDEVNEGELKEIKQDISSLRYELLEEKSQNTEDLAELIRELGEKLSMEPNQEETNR
# Experiment: TRPC6 Calcium Flux Assay
# Assay type: cell-based
# Details: inhibition of OAG-triggered calcium influx in HEK293 cells stably transfected with human TRPC6; FLIPR; 25 min compound preincubation; 50 uM OAG; read-out: hTRPC6 Potency
# Procedure: Potency of TRPC6 (Transient receptor potential channel family C6) inhibitors were measured by their inhibition of Calcium influx trigged by OAG (1-Oleoyl-2-acetyl-sn-glycerol, Millipore Sigma, O6754) stimulation on HEK293 cells stably transfected with human TRPC6 using a FLIPR tetra system (BD PBX Calcium Assay Kit; BD Biosciences, San Jose Calif.). Cells were grown in a humidified environment at 37° C. under 5% CO2 using the growth medium with the following selective reagents (Dulbecco's Modified Eagle's Medium (DMEM) high glucose, 10% Fetal Bovine Serum, 1×PSGlu (penicillin-streptomycin glutamine), 1×NEAA (Non-essential amino acid), 1×Na Pyruvate and 200 ug/ml Hygromycin). For general passage, cells were grown to 70-90% confluency; the media was removed, and the cells were gently washed 2 times with calcium and magnesium free PBS (phosphate-buffered saline). Trypsin (3 mL) was applied for 5 minutes at 37° C. The cells were dislodged by rapping flask against base of a hand and 7 mL of growth medium was added to deactivate trypsin and re-suspend cells. The usual splitting schedule was 1:5 every 2-3 days.
# Cells were plated the day before the assay, plating cell density is 1.0-1.5×10^4/25 μl/well in poly-D-lysine (PDL) coated 384-well plates using either multichannel pipettes or multidrop. These cells were first incubated with fluorescence dye at room temperature for 90-120 minutes after they were grown on PDL-coated 384-well black plates overnight (Dye loading buffer 10 ml example: 9 mL assay buffer, 1 mL, 10×PBX signal enhancer, 10 μL Calcium indicator). The cells were incubated with a dose of compounds for 25 minutes before being stimulated with TRPC6 agonist OAG. The OAG solution was prepared by adding OAG into assay buffer (Ca ringer solution base: 10 mM HEPES (4-(2-hydroxyethyl)-1-piperazine-ethanesulfonic acid), 4 mM MgCl2, 120 mM NaCl, 5 mM KCl, pH=7.2 @25° C.)+0.1% BSA+2 mM CaCl2) to the concentration of 0.2 mM/2% DMSO, which achieves a final on cell concentration of 50 uM/0.5% DMSO. 12.5 uL OAG mixture was added and the activation of the TRPC6 channel was measured by the change of intracellular Calcium levels on FLIPR terra system.
# Data was acquired by measuring the fluorescent peak signal subtracted from the background during the 180 second imaging frame. Each data point is further normalized to 100% of OAG triggered signal vs. buffer. Table 3 provides the IC50 for each compound, which data is obtained by plotting peak signal over the compound dose.
row,SMILES,IC50 [nM]
1,"N[C@@H]1CN(c2nc3ccc(F)cc3n2Cc2ccc(Cl)cn2)CCC1(F)F (single isomer, unassigned) [Example 10]",2.5
2,"COc1cnc(Cn2c(N3CC[C@@H](F)[C@H](N)C3)nc3c(F)cc(F)cc32)nc1 (single isomer, unassigned) [Example 9]",0.5
3,"N[C@@H]1CN(c2nc3cc(F)ccc3n2Cc2ccc(Cl)cn2)CCC1(F)F (single isomer, unassigned) [Example 5]",0.3
4,"N[C@@H]1CN(c2nc3ccc(F)cc3n2Cc2ncc(Cl)cn2)CCC1(F)F (single isomer, unassigned) [Example 6]",1
5,"N[C@@H]1CN(c2nc3cc(F)c(F)cc3n2Cc2ccc(Cl)cn2)CCC1(F)F [Example 16, (3R)-1-(1-((5-chloro-2-pyridinyl)methyl)-5,6-difluoro-1H-benzimidazol-2-yl)-4,4-difluoro-3-piperidinamine]",0.6
6,"N[C@@H]1CN(c2nc3ccc(F)cc3n2Cc2ccc(Cl)cn2)CC[C@H]1F (single isomer, unassigned) [Example 12, (3R.4R)-1-(1-((5-chloro-2-pyridinyl)methyl)-6-fluoro-1H-benzimidazol-2-yl)-4-fluoro-3-piperidinamine]",1
7,"N[C@@H]1CN(c2nc3cc(F)ccc3n2Cc2ncc(F)cn2)CC[C@H]1F (single isomer, unassigned) [Example 11]",0.4
8,"N[C@@H]1CN(c2nc3cc(F)cc(F)c3n2Cc2ccc(F)cn2)CCC1(F)F (single isomer, unassigned) [Example 2]",2.2
9,"N[C@@H]1CN(c2nc3ccc(F)cc3n2Cc2ncc(F)cn2)CC[C@H]1F (single isomer, unassigned) [Example 3]",0.2
10,"N[C@@H]1CN(c2nc3cc(F)ccc3n2Cc2ccc(F)cn2)CC[C@H]1F (single isomer, unassigned) [Example 1]",0.7
11,"N#Cc1ccc2nc(N3CCC(F)(F)[C@H](N)C3)n(Cc3ccc(Cl)cn3)c2c1 (single isomer, unassigned) [Example 13]",1.3
12,"Cc1ccc(Cn2c(N3CC[C@@H](F)[C@H](N)C3)nc3cc(F)c(F)cc32)nc1 [Example 8, (3R,4R)-1-(5,6-difluoro-1-((5-methyl-2-pyridinyl)methyl)-1H-benzimidazol-2-yl)-4-fluoro-3-piperidinamine]",0.1
13,"COc1cc(F)c2nc(N3CC[C@@H](F)[C@H](N)C3)n(Cc3ncc(Cl)cn3)c2c1 (single isomer, unassigned) [Example 21]",0.4
14,"N#Cc1cccc(Cn2c(N3CC[C@@H](F)[C@H](N)C3)nc3cc(F)c(F)cc32)n1 [Example 20, 6-((2-((3R,4R)-3-amino-4-fluoro-1-piperidinyl)-5,6-difluoro-1H-benzimidazol-1-yl)methyl)-2-pyridinecarbonitrile]",1.8
15,"COc1cnc(Cn2c(N3CC[C@@H](F)[C@H](N)C3)nc3cc(F)c(F)cc32)nc1 [Example 19, (3R,4R)-1-(5,6-difluoro-1-((5-methoxy-2-pyrimidinyl)methyl)-1H-benzimidazol-2-yl)-4-fluoro-3-piperidinamine]",1.2
16,"N[C@@H]1CN(c2nc3cc(F)c(F)cc3n2Cc2ncc(Cl)cn2)CC[C@H]1F [Example 18, (3R,4R)-1-(1-((5-chloro-2-pyrimidinyl)methyl)-5,6-difluoro-1H-benzimidazol-2-yl)-4-fluoro-3-piperidinamine]",1.2
17,"N[C@@H]1CN(c2nc3ccc(F)cc3n2Cc2ccc(F)cn2)CC[C@H]1F (single isomer, unassigned) [Example 4]",0.4
18,"N#Cc1cc(F)cc2c1nc(N1CC[C@@H](F)[C@H](N)C1)n2Cc1ccc(F)cn1 (single isomer, unassigned) [Example 15]",1
19,"N[C@@H]1CN(c2nc3cc(F)c(F)cc3n2Cc2ncc(Cl)cn2)CCC1(F)F [Example 17, (3R)-1-(1-((5-chloro-2-pyrimidinyl)methyl)-5,6-difluoro-1H-benzimidazol-2-yl)-4,4-difluoro-3-piperidinamine]",0.6
20,"N[C@@H]1CN(c2nc3c(F)cc(F)cc3n2Cc2ncc(Cl)cn2)CCC1(F)F (single isomer, unassigned) [Example 14]",1.2
21,"N[C@@H]1CN(c2nc3ccc(F)cc3n2Cc2ccc(F)cn2)CCC1(F)F (single isomer, unassigned) [Example 7]",22.9
